Experimental data from the supplement of paper PMC10307832.

Columns and labels:
Assay in all cases: relative viability (nuclei count vs DMSO), 5 days (fraction); higher = more cells survive
[1] = compound: C1CSC2=C(C(=O)N1)SC3=C2C=C(C=C3)O [kb NB 142-70] + Nc1ncn([C@H]2C[C@H](O)[C@@H](CO)O2)c(=O)n1 [Decitabine] (partner 2 µM)
In short: (§1)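 Relative viability was taken as the ratio of nuclei in treated wells to nuclei in vehicle wells. Lung cancer cell lines in 1536-well plates received compounds by pin tool one day after seeding, either one drug alone or a fixed anchor-drug dose plus five library-drug doses (not always all listed) in √10 steps. Nuclei were counted on 4× images after 5 days of treatment, and values are medians of duplicate plates.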

[2] = compound: NCC(=O)Nc1ccc(-n2nc(C(F)(F)F)cc2-c2ccc3c(ccc4ccccc43)c2)cc1 + COc1cccc2cc(-c3nc([C@H]4CC[C@H](C(=O)O)CC4)n4ncnc(N)c34)[nH]c12 [OSI-027] (partner 0.5 µM)
In short: as §1

[3] = compound: NCC(=O)Nc1ccc(-n2nc(C(F)(F)F)cc2-c2ccc3c(ccc4ccccc43)c2)cc1 + C[C@@H](Oc1cc(-c2cnn(C3CCNCC3)c2)cnc1N)c1c(Cl)ccc(F)c1Cl [Crizotinib] (partner 1 µM)
In short: as §1

[4] = compound: NCC(=O)Nc1ccc(-n2nc(C(F)(F)F)cc2-c2ccc3c(ccc4ccccc43)c2)cc1 + O=C(c1cc(Cc2n[nH]c(=O)c3ccccc23)ccc1F)N1CCN(C(=O)C2CC2)CC1 [Olaparib] (partner 8 µM)
In short: as §1

| Cell Line | relative viability ([1]; first compound 0.1 µM) | relative viability ([1]; first compound 1 µM) | relative viability ([1]; first compound 3.162 µM) | relative viability ([2]; first compound 0.02 µM) | relative viability ([2]; first compound 0.06325 µM) | relative viability ([2]; first compound 0.2 µM) | relative viability ([2]; first compound 0.6325 µM) | relative viability ([2]; first compound 2 µM) | relative viability ([3]; first compound 0.02 µM) | relative viability ([3]; first compound 0.06325 µM) | relative viability ([3]; first compound 0.2 µM) | relative viability ([3]; first compound 0.6325 µM) | relative viability ([3]; first compound 2 µM) | relative viability ([4]; first compound 0.02 µM) | relative viability ([4]; first compound 0.06325 µM) | relative viability ([4]; first compound 0.2 µM) | relative viability ([4]; first compound 0.6325 µM) | relative viability ([4]; first compound 2 µM) |
| --- | --- | --- | --- | --- | --- | --- | --- | --- | --- | --- | --- | --- | --- | --- | --- | --- | --- | --- |
| NCI-H1975 | 0.431 | 0.388 | 0.295 | 0.676 | 0.811 | 0.772 | 0.834 | 0.752 | 0.96 | 0.954 | 0.954 | 0.906 | 0.914 | 0.763 | 0.847 | 0.887 | 0.744 | 0.873 |
| CAL-12T |  |  |  | 0.619 | 0.651 | 0.644 | 0.604 | 0.621 | 0.682 | 0.73 | 0.591 | 0.716 | 0.722 | 0.761 | 0.735 | 0.659 | 0.711 | 0.765 |
| NCI-H1623 |  |  |  | 0.439 | 0.475 | 0.395 | 0.494 | 0.432 |  |  |  |  |  |  |  |  |  |  |
| HCC-44 | 0.946 | 0.993 | 1.01 | 0.461 | 0.743 | 0.592 | 0.651 | 0.497 | 0.9 | 0.828 | 0.853 | 0.819 | 0.74 | 1.05 | 0.994 | 0.953 | 0.941 | 0.956 |
| EKVX | 0.369 | 0.311 | 0.364 | 0.729 | 0.646 | 0.673 | 0.674 | 0.737 | 1.2 | 0.973 | 0.896 | 1.06 | 0.868 | 0.973 | 0.966 | 0.882 | 0.935 | 1.13 |
| NCI-H1651 | 0.61 | 0.607 | 0.491 | 0.655 | 0.929 | 0.628 | 0.584 | 0.803 | 0.803 | 0.853 | 0.875 | 0.881 | 0.952 | 0.177 | 0.177 | 0.175 | 0.175 | 0.173 |
| NCI-H1944 | 0.451 | 0.458 | 0.473 | 0.37 | 0.442 | 0.427 | 0.423 | 0.47 | 1.04 | 1.05 | 1.11 | 1.06 | 1.13 | 0.463 | 0.384 | 0.4 | 0.388 | 0.397 |
| NCI-H1703 |  |  |  |  |  |  |  |  | 0.593 | 0.657 | 0.924 | 0.621 | 0.951 | 0.498 | 0.356 | 0.644 | 0.367 | 0.368 |
| Calu-6 |  |  |  |  |  |  |  |  | 0.862 | 0.854 | 0.853 | 0.838 | 0.774 | 0.568 | 0.578 | 0.553 | 0.562 | 0.571 |
| EBC-1 |  |  |  |  |  |  |  |  | 0.178 | 0.236 | 0.204 | 0.198 | 0.25 | 0.693 | 0.774 | 0.836 | 0.623 | 0.7 |
| SW 1573 | 0.526 | 0.378 | 0.26 | 0.593 | 0.658 | 0.759 | 0.487 | 0.551 | 0.756 | 0.756 | 0.837 | 0.848 | 0.911 | 0.554 | 0.506 | 0.531 | 0.479 | 0.404 |
| NCI-H2228 |  |  |  | 0.672 | 0.535 | 0.904 | 0.644 | 0.584 | 0.56 | 0.652 | 0.603 | 0.544 | 0.493 | 0.354 | 0.641 | 0.827 | 0.52 | 0.633 |
| IA-LM |  |  |  |  |  |  |  |  | 0.775 | 0.573 | 1.02 | 0.797 | 0.742 | 0.986 | 0.722 | 0.951 | 0.896 | 1 |
| NCI-H1793 | 0.487 | 0.544 | 0.3 | 0.26 | 0.263 | 0.321 | 0.276 | 0.251 |  |  |  |  |  | 1.05 | 0.957 | 0.921 | 0.852 | 1.02 |
| NCI-H2342 | 0.66 | 0.694 | 0.748 | 0.666 | 0.726 | 0.635 | 0.539 | 0.648 |  |  |  |  |  | 0.623 | 0.477 | 0.434 | 0.447 | 0.422 |
| NCI-H1299 |  |  |  |  |  |  |  |  | 0.97 | 0.969 | 0.991 | 0.944 | 1 | 0.96 | 0.916 | 0.977 | 0.918 | 0.998 |
| SW 900 | 0.473 | 0.4 | 0.418 |  | 0.54 | 0.627 | 0.648 | 0.507 |  |  |  |  |  | 0.86 | 0.881 | 0.88 | 0.693 | 0.994 |
| NCI-H1648 | 0.452 | 0.435 | 0.493 | 0.248 | 0.262 | 0.257 | 0.227 | 0.273 |  |  |  |  |  | 0.577 | 1.03 | 1.02 | 0.649 | 0.56 |
| NCI-H522 | 0.61 | 0.698 | 0.581 |  | 0.785 | 0.697 | 0.699 | 0.713 |  |  |  |  |  | 0.666 | 0.777 | 0.721 | 0.685 | 0.656 |
| NCI-H1395 | 0.635 | 0.726 | 0.609 | 0.709 | 0.688 | 0.693 | 0.642 | 0.686 |  |  |  |  |  | 0.483 | 0.469 | 0.469 | 0.519 | 0.437 |
| A549 | 0.24 | 0.245 | 0.233 |  |  |  |  |  | 0.762 | 0.755 | 0.774 | 0.767 | 0.826 | 0.294 | 0.291 | 0.339 | 0.29 | 0.239 |
| NCI-H1563 |  |  |  | 0.785 | 0.786 | 0.761 | 0.771 | 0.719 | 0.887 | 0.91 | 0.881 | 0.835 | 0.997 |  |  |  |  |  |
